Experimental data reported in ChEMBL document CHEMBL5360641, “4'-Ethynyl-2'-deoxy-2'-β-fluoro-2-fluoroadenosine: A Highly Potent and Orally Available Clinical Candidate for the Treatment of HIV-1 Infection” (J Med Chem, 2023).

Assays:
[1] = tested on: Human immunodeficiency virus 1; test: Antiviral activity against HIV1 VSV-G pseudotyped virus infected in human HEK293T cells assessed as inhibition of viral growth preincubated for 3 hrs followed by washout and further incubated with compound for 72 hrs by luciferase assay; format: functional, organism-based; details: Human immunodeficiency virus 1, HEK-293T
[2] = AUC (0 to t) in Sprague-Dawley rat at 2.5 mg/kg, IG measured upto 24 hrs by LC-MS/MS analysis; format: ADME, organism-based; design: time < 24 hrs, dose 2.5 mg/kg, route ig; details: in vivo, po
[3] = Apparent oral clearance in Sprague-Dawley rat at 10 mg/kg, IG measured upto 24 hrs by LC-MS/MS analysis; format: ADME, organism-based; details: in vivo
[4] = Toxicity in Sprague-Dawley rat assessed as effect on blood biochemistry at 10 to 30 mg/kg, po administered once daily for 4 weeks and measured after 24 hrs post last dose; format: organism-based; details: in vivo, 696 h, dose 10-30 mg/kg
[5] = Acute toxicity in Sprague-Dawley rat assessed as effect on brain damage at 500 to 2000 mg/kg, IG measured on day 15; format: organism-based; details: in vivo, po, 360 h, dose 500-2000 mg/kg, time 15 day
[6] = Cmax in Sprague-Dawley rat at 2.5 mg/kg, IG measured upto 24 hrs by LC-MS/MS analysis; format: ADME, organism-based; design: time < 24 hrs, dose 2.5 mg/kg, route ig; details: in vivo, po
[7] = Bioavailability in Sprague-Dawley rat at 2.5 mg/kg, IG measured upto 24 hrs by LC-MS/MS analysis; format: ADME, organism-based; details: in vivo, po
[8] = Toxicity in po dosed Sprague-Dawley rat assessed as NOAEL administered once daily for 4 weeks and measured after 24 hrs post last dose; format: organism-based; details: in vivo
[9] = AUC (0 to t) in female Sprague-Dawley rat at 30 mg/kg, IG measured at 0.5 hrs LC-MS/MS analysis; format: ADME, organism-based; design: time 0.5 hrs, dose 30 mg/kg, route ig; details: in vivo, po
[10] = Half life in Sprague-Dawley rat at 10 mg/kg, IG measured upto 24 hrs by LC-MS/MS analysis; format: ADME, organism-based; details: in vivo, po
[11] = Cmax in Sprague-Dawley rat at 10 mg/kg, IG measured upto 24 hrs by LC-MS/MS analysis; format: ADME, organism-based; design: time < 24 hrs, dose 10 mg/kg, route ig; details: in vivo, po
[12] = Toxicity in Sprague-Dawley rat assessed as effect on food consumption at 10 to 30 mg/kg, po administered once daily for 4 weeks and measured after 24 hrs post last dose; format: organism-based; details: in vivo, 696 h, dose 10-30 mg/kg
[13] = Cmax in Sprague-Dawley rat at 5 mg/kg, IG measured upto 24 hrs by LC-MS/MS analysis; format: ADME, organism-based; design: time < 24 hrs, dose 5 mg/kg, route ig; details: in vivo, po
[14] = tested on: Human immunodeficiency virus 1; test: Antiviral activity against HIV1 4755-5 infected in human C8166 cells assessed as inhibition of viral replication by measuring reduction in p24 antigen level incubated for 3 to 7 days by ELISA analysis; format: functional, organism-based; details: Human immunodeficiency virus 1, 4755-5, C8166
[15] = Cytotoxicity against HEK293T cells assessed as reduction in cell viability by MTT assay; format: toxicity, cell-based, HEK-293T; details: human
[16] = AUC (0 to t) in female Sprague-Dawley rat at 10 mg/kg, IG measured at 24 hrs LC-MS/MS analysis; format: ADME, organism-based; design: time 24 hrs, dose 10 mg/kg, route ig; details: in vivo, po
[17] = AUC (0 to t) in male Sprague-Dawley rat at 30 mg/kg, IG measured at 0.5 hrs LC-MS/MS analysis; format: ADME, organism-based; design: dose 30 mg/kg, time 0.5 hrs, route ig; details: in vivo, po
[18] = Selectivity index, ratio of CC50 for cytotoxicity against HEK293T cells assessed as reduction in cell viability by MTT assay to EC50 for antiviral activity against HIV1 VSV-G pseudotyped virus infected in human HEK293T cells assessed as inhibition of viral growth; format: toxicity, cell-based; details: read-out: Ratio CC50/EC50
[19] = Half life in Sprague-Dawley rat at 5 mg/kg, IG measured upto 24 hrs by LC-MS/MS analysis; format: ADME, organism-based; details: in vivo, po
[20] = AUC (0 to t) in male Sprague-Dawley rat at 30 mg/kg, IG measured at 24 hrs LC-MS/MS analysis; format: ADME, organism-based; design: time 24 hrs, dose 30 mg/kg, route ig; details: in vivo, po
[21] = tested on: Human immunodeficiency virus 1; test: Antiviral activity against HIV1 A17 infected in human C8166 cells assessed as inhibition of viral replication by measuring reduction in p24 antigen level incubated for 3 to 7 days by ELISA analysis; format: functional, organism-based; details: Human immunodeficiency virus 1, A17, C8166
[22] = tested on: Human immunodeficiency virus 1; test: Antiviral activity against HIV-1 harboring integrase G140S/Q148H double mutant infected in human TZM-bl cells assessed as inhibition of viral replication incubated for 3 to 7 days by luciferase assay; format: functional, organism-based; details: Human immunodeficiency virus 1, TZM-bl
[23] = tested on: Human immunodeficiency virus 1; test: Antiviral activity against HIV1 IIIB infected in human MT4 cells assessed as inhibition of viral replication incubated for 3 to 7 days by MTT analysis; format: functional, organism-based; details: Human immunodeficiency virus 1, IIIB
[24] = Acute toxicity in Sprague-Dawley rat assessed as effect on food intake at 500 to 2000 mg/kg, IG measured for 14 days; format: organism-based; details: in vivo, po, 336 h, dose 500-2000 mg/kg, time 14 day
[25] = Toxicity in Sprague-Dawley rat assessed as death at 10 to 30 mg/kg, po administered once daily for 4 weeks and measured after 24 hrs post last dose; format: organism-based; details: in vivo, 696 h, dose 10-30 mg/kg
[26] = Acute toxicity in Sprague-Dawley rat assessed as death at 500 to 2000 mg/kg, IG measured for 14 days; format: organism-based; details: in vivo, po, 336 h, dose 500-2000 mg/kg, time 14 day
[27] = Apparent oral clearance in Sprague-Dawley rat at 2.5 mg/kg, IG measured upto 24 hrs by LC-MS/MS analysis; format: ADME, organism-based; details: in vivo
[28] = Tmax in Sprague-Dawley rat at 10 mg/kg, IG measured upto 24 hrs by LC-MS/MS analysis; format: ADME, organism-based; details: in vivo, po
[29] = Apparent oral clearance in Sprague-Dawley rat at 5 mg/kg, IG measured upto 24 hrs by LC-MS/MS analysis; format: ADME, organism-based; details: in vivo
[30] = Acute toxicity in Sprague-Dawley rat assessed as effect on spleen damage at 500 to 2000 mg/kg, IG measured on day 15; format: organism-based; details: in vivo, po, 360 h, dose 500-2000 mg/kg, time 15 day
[31] = tested on: Human immunodeficiency virus 1; test: Antiviral activity against HIV1 IIIB infected in human C8166 cells assessed as inhibition of viral replication by measuring reduction in p24 antigen level incubated for 3 to 7 days by ELISA analysis; format: functional, organism-based; details: Human immunodeficiency virus 1, IIIB
[32] = Bioavailability in Sprague-Dawley rat at 5 mg/kg, IG measured upto 24 hrs by LC-MS/MS analysis; format: ADME, organism-based; details: in vivo, po

C#C[C@]1(CO)O[C@@H](n2cnc3c(N)nc(F)nc32)[C@@H](F)[C@@H]1O
EC50 [1]: 0.9 nM
AUC(0-t) at 24 h [2]: 1720 ng·h/mL
CL/F [3]: 21.2 mL/min/kg
Activity [4]: Non-Toxic
Activity [5]: Non-Toxic
Cmax [6]: 630 ng/mL
bioavailability [7]: 64.2%
NOAEL at 696 h [8]: 30 mg/kg
AUC(0-t) at 0.5 h [9]: 22800 ng·h/mL
half-life [10]: 2.3 h
Cmax [11]: 2110 ng/mL
Activity [12]: Non-Toxic
Cmax [13]: 1230 ng/mL
EC50 [14]: 32.4 nM
CC50 [15]: > 100000 nM
AUC(0-t) at 24 h [16]: 6800 ng·h/mL
AUC(0-t) at 0.5 h [17]: 28200 ng·h/mL
selectivity ratio [18]: > 111000
half-life [19]: 3.2 h
AUC(0-t) at 24 h [20]: 27100 ng·h/mL
EC50 [21]: 1.53 nM
EC50 [22]: 2.84 nM
EC50 [23]: 1.22 nM
Activity [24]: Non-Toxic
Activity [25]: Non-Toxic
Activity [26]: Non-Toxic
CL/F [27]: 24.8 mL/min/kg
Tmax [28]: 1 h
CL/F [29]: 25 mL/min/kg
Activity [30]: Non-Toxic
EC50 [31]: 6.5 nM
bioavailability [32]: 67.5%
